The text below walks through data of patent US12091402B2 (Avilar Therapeutics, Inc., priority 2021, dated 2024).

In test [1] the target is IgG. Put plainly: Affinity to IgG by surface plasmon resonance (SPR). It is filed as binding. As to the method: Immobilization levels ranging from 1000-1300 resonance units (RU) are obtained. The running buffer is 10 mM HEPES, pH 7.4, 400 mM NaCl, 0.005% P20, […].
On the technique in general: In SPR one partner is held on a chip, and binding of the other changes the refractive index at the surface.

For test [2], the target named is T1, ASGPR receptor on the cell surface (HepG2 cells) (Homo sapiens, UniProt P07306).
T1 construct: host or cells: HepG2
T1 sequence (P07306 1-291): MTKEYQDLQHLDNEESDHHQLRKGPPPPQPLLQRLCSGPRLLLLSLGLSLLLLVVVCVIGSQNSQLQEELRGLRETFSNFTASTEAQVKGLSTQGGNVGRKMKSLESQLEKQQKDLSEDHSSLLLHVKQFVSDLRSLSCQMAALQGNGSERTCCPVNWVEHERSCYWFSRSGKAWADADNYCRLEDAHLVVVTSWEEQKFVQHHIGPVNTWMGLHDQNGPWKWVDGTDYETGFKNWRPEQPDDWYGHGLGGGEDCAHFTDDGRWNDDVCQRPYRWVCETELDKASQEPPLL
T1 sequence (P07307 1-311 partner): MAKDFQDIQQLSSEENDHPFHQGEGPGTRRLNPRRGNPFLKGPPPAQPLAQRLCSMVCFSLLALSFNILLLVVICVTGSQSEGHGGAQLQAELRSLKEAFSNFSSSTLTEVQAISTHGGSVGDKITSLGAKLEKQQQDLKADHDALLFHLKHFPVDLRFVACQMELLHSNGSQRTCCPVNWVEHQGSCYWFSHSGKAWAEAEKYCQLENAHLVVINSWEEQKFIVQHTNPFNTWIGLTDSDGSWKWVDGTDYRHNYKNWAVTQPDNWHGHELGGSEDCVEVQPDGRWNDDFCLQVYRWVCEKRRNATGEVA
The test is described as follows: Ternary complex formation assay (flow cytometry, HepG2). The test is classed as cell-based. In a few lines: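 HepG2 cells (1×10^5/well) incubated 1 h at 4 °C with 100 nM AF488-labeled anti-human IgG plus serial IgG-based degrader, or 100 nM AF488 rabbit anti-DNP plus serial DNP-based degrader. After washing, cell-associated AF488 MFI read by flow cytometry; peak MFI marks optimal degrader concentration for ternary complex.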
For orientation: In flow cytometry, cells or beads pass a laser one at a time.

The test system of test [3] is HepG2 cells. Put plainly: Cellular uptake assay of AF488-labeled antibody (HepG2). The test is classed as cell-based. As to conditions: HepG2 cells. In outline:
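HepG2 cells given 100 nM AF488-labeled human IgG or DNP antibody plus serial dilutions of matching degrader (0.1% DMSO final), 6 h at 37° C. Methanol-fixed, DAPI-stained and imaged by high-content analysis. Value is the fraction of AF488-positive cells over total DAPI-counted cells.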

In test [4] the target is T2, ASGPR (Homo sapiens, UniProt P07306).
T2 sequence (P07306 1-291): T1 sequence (P07306 1-291)
The test is described as follows: Affinity to ASGPR by surface plasmon resonance (SPR).

Setting [5] is: HepG2 cells, ternary complex formation, read-out: TCF EC50.
Where [6] appears, read: Biacore 8K, 25° C., IgG on CM5 chip, read-out: IgG SPR Binding Kd.
Where [7] appears, read: 100 nM AF488-labeled antibody, 37° C. for 6 hours, class symbols, read-out: Uptake Assay EC50.

In general, Kd refers to the concentration at which binding is half-saturated. The EC50 is the concentration that produces a half-maximal response.

Where two headings read alike, the source gives them in different places. Bounds are passed on as bounds.

Regarding `CC(C)C[C@@H]1NC(=O)[C@H](Cc2cnc[nH]2)NC(=O)[C@H](Cc2c[nH]c3ccccc23)NC(=O)[C@H](C)NC(=O)[C@@H]2CSSC[C@H](NC(=O)[C@H](Cc3c[nH]c4ccccc34)NC(=O)[C@H](C(C)C)NC(=O)[C@H](CC(C)C)NC(=O)[C@H](CCC(=O)O)NC(=O)CNC1=O)C(=O)N[C@@H]([C@@H](C)O)C(=O)N1CCC[C@@H]1C(=O)N1C[C@@H](NC(=O)c3ccc(C(=O)NC[C@H]4OC[C@H](Nc5cncc(C(F)(F)F)n5)[C@@H](O)[C@H]4O)cc3)C[C@H]1C(=O)N[C@@H](CC(=O)O)C(=O)N2` [Compound 67], the dissociation constant Kd in test [1] (SPR, read-out: IgG KD) is under 100 nM; in test [4] it was under 100 nM. Further, the EC50 in test [2] (setting [5]) and in test [3] (read-out: Uptake EC50) was over 1000 nM throughout.
For the compound `CC(C)C[C@@H]1NC(=O)[C@H](Cc2c[nH]cn2)NC(=O)[C@H](Cc2c[nH]c3ccccc23)NC(=O)[C@H](C)NC(=O)[C@@H]2CSSC[C@H](NC(=O)[C@H](Cc3c[nH]c4ccccc34)NC(=O)[C@H](C(C)C)NC(=O)[C@H](CC(C)C)NC(=O)[C@H](CCC(=O)O)NC(=O)CNC1=O)C(=O)N[C@@H]([C@@H](C)O)C(=O)N1CCC[C@@H]1C(=O)N1C[C@@H](NC(=O)c3ccc(N4CCC(CN5CCN(C[C@H]6OC[C@H](Nc7cncc(C(F)(F)F)n7)[C@@H](O)[C@H]6O)CC5)CC4)cc3)C[C@H]1C(=O)N[C@@H](CC(=O)O)C(=O)N2` [Compound 68], the dissociation constant (Kd) in test [1] (SPR, read-out: IgG KD) is under 100 nM; in test [4], under 100 nM. Besides, the concentration for a half-maximal effect (EC50) in test [2] and in test [3] (read-out: Uptake EC50) was under 100 nM throughout.
Consider `CC(C)C[C@@H]1NC(=O)[C@H](Cc2cnc[nH]2)NC(=O)[C@H](Cc2c[nH]c3ccccc23)NC(=O)[C@H](C)NC(=O)[C@@H]2CSSC[C@H](NC(=O)[C@H](Cc3c[nH]c4ccccc34)NC(=O)[C@H](C(C)C)NC(=O)[C@H](CC(C)C)NC(=O)[C@H](CCC(=O)O)NC(=O)CNC1=O)C(=O)N[C@@H]([C@@H](C)O)C(=O)N1CCC[C@@H]1C(=O)N1C[C@@H](NC(=O)C3CCC(C(=O)NC[C@H]4OC[C@H](Nc5cncc(C(F)(F)F)n5)[C@@H](O)[C@H]4O)CC3)C[C@H]1C(=O)N[C@@H](CC(=O)O)C(=O)N2` (some centres unmarked) [Compound 69], for which the Kd is under 100 nM in test [1] (SPR, read-out: IgG KD) and 100 to 500 nM in test [4]. In addition, the concentration for a half-maximal effect (EC50) in test [2] (setting [5]) and in test [3] (read-out: Uptake EC50) was over 1000 nM throughout.
As for `CC(C)C[C@@H]1NC(=O)[C@H](Cc2c[nH]cn2)NC(=O)[C@H](Cc2c[nH]c3ccccc23)NC(=O)[C@H](C)NC(=O)[C@@H]2CSSC[C@H](NC(=O)[C@H](Cc3c[nH]c4ccccc34)NC(=O)[C@H](C(C)C)NC(=O)[C@H](CC(C)C)NC(=O)[C@H](CCC(=O)O)NC(=O)CNC1=O)C(=O)N[C@@H]([C@@H](C)O)C(=O)N1CCC[C@@H]1C(=O)N1C[C@@H](NC(=O)CCCc3cn(CCCCCC(=O)NC(COCCC(=O)NCCOCCOCCOCCOC[C@H]4OC[C@H](Nc5nccc(C(F)(F)F)n5)[C@@H](O)[C@H]4O)COCCC(=O)NCCOCCOCCOCCOC[C@H]4OC[C@H](Nc5nccc(C(F)(F)F)n5)[C@@H](O)[C@H]4O)nn3)C[C@H]1C(=O)N[C@@H](CC(=O)O)C(=O)N2` [Compound 53], the Kd in test [1] (setting [6]) is under 100 nM; in test [1] (SPR, read-out: IgG KD), under 100 nM; in test [4], under 100 nM. In addition, the EC50 in test [2], in test [2] (read-out: Ternary Complex EC50), in test [3] (setting [7]) and in test [3] (read-out: Uptake EC50) was under 100 nM each time.
Regarding `CC(C)C[C@@H]1NC(=O)[C@H](Cc2c[nH]cn2)NC(=O)[C@H](Cc2c[nH]c3ccccc23)NC(=O)[C@H](C)NC(=O)[C@@H]2CSSC[C@H](NC(=O)[C@H](Cc3c[nH]c4ccccc34)NC(=O)[C@H](C(C)C)NC(=O)[C@H](CC(C)C)NC(=O)[C@H](CCC(=O)O)NC(=O)CNC1=O)C(=O)N[C@@H]([C@@H](C)O)C(=O)N1CCC[C@@H]1C(=O)N1C[C@@H](NC(=O)CCOCCOCCOCCNC(=O)CCCc3cn(CCCCCC(=O)NC(COCCC(=O)NCCOCCOCCOCCOC[C@@]45CO[C@@H](O4)[C@H](Nc4nc(Cl)ns4)[C@@H](O)[C@H]5O)COCCC(=O)NCCOCCOCCOCCOC[C@@]45CO[C@@H](O4)[C@H](Nc4nc(Cl)ns4)[C@@H](O)[C@H]5O)nn3)C[C@H]1C(=O)N[C@@H](CC(=O)O)C(=O)N2` [Compound 8], the dissociation constant Kd in test [1] (setting [6]) and in test [4] was under 100 nM each time. Moreover, the EC50 in test [2] and in test [3] (setting [7]) was under 100 nM each time.
Regarding `CC(C)C[C@@H]1NC(=O)[C@H](Cc2c[nH]cn2)NC(=O)[C@H](Cc2c[nH]c3ccccc23)NC(=O)[C@H](C)NC(=O)[C@@H]2CSSC[C@H](NC(=O)[C@H](Cc3c[nH]c4ccccc34)NC(=O)[C@H](C(C)C)NC(=O)[C@H](CC(C)C)NC(=O)[C@H](CCC(=O)O)NC(=O)CNC1=O)C(=O)N[C@@H]([C@@H](C)O)C(=O)N1CCC[C@@H]1C(=O)N1C[C@@H](NC(=O)CCOCCNC(=O)CCCc3cn(CCCCCC(=O)NC(COCCC(=O)NCCOCCOCCOCCOC[C@H]4OC[C@H](Nc5nccc(C(F)(F)F)n5)[C@@H](O)[C@H]4O)COCCC(=O)NCCOCCOCCOCCOC[C@H]4OC[C@H](Nc5nccc(C(F)(F)F)n5)[C@@H](O)[C@H]4O)nn3)C[C@H]1C(=O)N[C@@H](CC(=O)O)C(=O)N2` [Compound 6], the Kd in test [1] (setting [6]) and in test [4] was under 100 nM each time. Further, the EC50 in test [2] and in test [3] (setting [7]) was under 100 nM throughout.
In the case of `CC(=O)N[C@H]1[C@H](OCCOCCOCCOCCNC(=O)CCOCC(COCCC(=O)NCCOCCOCCOCCO[C@@H]2O[C@H](CO)[C@H](O)[C@H](O)[C@H]2NC(C)=O)(COCCC(=O)NCCOCCOCCOCCO[C@@H]2O[C@H](CO)[C@H](O)[C@H](O)[C@H]2NC(C)=O)NC(=O)CCCCCn2cc(CCCC(=O)NCCOCCOCCOCCOCCC(=O)N[C@H]3C[C@H]4C(=O)N[C@@H](CC(=O)O)C(=O)N[C@H]5CSSC[C@H](NC(=O)[C@H](Cc6c[nH]c7ccccc67)NC(=O)[C@H](C(C)C)NC(=O)[C@H](CC(C)C)NC(=O)[C@H](CCC(=O)O)NC(=O)CNC(=O)[C@H](CC(C)C)NC(=O)[C@H](Cc6c[nH]cn6)NC(=O)[C@H](Cc6c[nH]c7ccccc67)NC(=O)[C@H](C)NC5=O)C(=O)N[C@@H]([C@@H](C)O)C(=O)N5CCC[C@@H]5C(=O)N4C3)nn2)O[C@H](CO)[C@H](O)[C@@H]1O` [Compound 85], the Kd in test [1] (SPR, read-out: IgG KD) is under 100 nM; in test [4] it was 500 to 1000 nM. Further, the EC50 in test [2] and in test [3] (read-out: Uptake EC50) was over 1000 nM throughout.
As for `CC(C)C[C@@H]1NC(=O)[C@H](Cc2cnc[nH]2)NC(=O)[C@H](Cc2c[nH]c3ccccc23)NC(=O)[C@H](C)NC(=O)[C@@H]2CSSC[C@H](NC(=O)[C@H](Cc3c[nH]c4ccccc34)NC(=O)[C@H](C(C)C)NC(=O)[C@H](CC(C)C)NC(=O)[C@H](CCC(=O)O)NC(=O)CNC1=O)C(=O)N[C@@H]([C@@H](C)O)C(=O)N1CCC[C@@H]1C(=O)N1C[C@@H](NC(=O)c3ccc(N4CCC(CN5CCN(C[C@H]6OC[C@H](Nc7cncc(C(F)(F)F)n7)[C@@H](O)[C@H]6O)CC5)CC4)nn3)C[C@H]1C(=O)N[C@@H](CC(=O)O)C(=O)N2` [Compound 66], the Kd in test [1] (SPR, read-out: IgG KD) was under 100 nM; in test [4], under 100 nM. Further, the concentration for a half-maximal effect (EC50) in test [2] (setting [5]) and in test [3] (read-out: Uptake EC50) was under 100 nM throughout.
